Assay results from patent publication US9157104B2, “Method to improve phosphate solubilization in plants” (Consiglio Nazionale delle Ricerche, priority 2009, dated 2015).

Columns and labels:
S. meliloti 1021 = experiment: Microarray gene expression of 1021 cells treated with 0.5 mM compound; details: P-sufficient (13 mM); for pho genes among those significantly affected (microarray): 1021 + 0.5 mM compound vs untreated 1021;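 for all read-outs here: cells were harvested 3 h after the start of each treatment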
Procedure: For P starvation experiments, cells of 1021 wild-type and RD64 strains were grown at 30° C. to mid exponential phase (OD600=0.6) in RMM broth containing 1% (w/v) mannitol as carbon source and 13 mM P, washed with RMM containing 0 P, resuspended in the same medium and then divided into three cultures. No P (−P), 1.0 mM P (P-starved cells) or 13 mM P (+P cells also named P-sufficient cells) was added into the three cultures, respectively. The P-starved and P-sufficient 1021 wild type cells were treated for 3.0 hours with 0.5 mM IAA. […] To rule out that this bacteria could be partially starved for Trp, RD64 cells were also treated with 0.5 mM Trp and used for microarrays and RT-PCR analyses. […] After 3 hours of each treatment, cell batches were collected, freezed and stored at −80° C. for use in experiments.

[1] = test system: pho operon genes in S. meliloti cells; experiment: Quantitative RT-PCR analysis of pho operon genes; format: cell-based; details: for phoB regulatory gene expression (qRT-PCR): P-sufficient (13 mM K-phosphate), vs untreated 1021 cells; for phoB regulatory gene expression (qRT-PCR) / expression level of all five pho genes (RT-PCR): compounds 0.5 mM, 3 hours; for expression level of all five pho genes (RT-PCR): P-starved conditions, vs control 1021
Procedure: FIG. S1. Quantitative RT-PCR analysis of pho operon genes in S. meliloti cells under P-sufficient conditions (13 mM K-phosphate). The relative expression level was >1 for genes more highly expressed in RD64 and in 1021 cells treated for 3 hours with 0.5 mM IAA, Ind, Trp, ICA and 2,4-D. The relative expression level was <1 for genes more highly expressed in 1021 cells (control). Error bars represent the standard deviation from three independent biological experiments.
FIG. 1. Quantitative RT-PCR analysis of pho operon genes expression in S. meliloti cells under P-starving conditions. The relative expression level was >1 for genes more highly expressed in RD64 and in 1021 cells treated for 3 hours with 0.5 mM IAA, Ind, Trp, ICA and 2,4-D. The relative expression level was <1 for genes more highly expressed in 1021 cells (control). Error bars represent the standard deviation from five independent biological experiments (p<0.05).
Total RNA from P-sufficient and P-starved cells was isolated as previously described (5). cDNA were synthesized with the StrataScript™ reverse transcription reagents (Stratagene) and random hexamers as primers. Quantitative PCR was performed with the Power SYBR PCR Master Mix (Applied Biosystems). Reactions were run on the iCycler iQ (Bio-Rad). The thermo cycling condition were: 15 min at 95° C., 40 cycles of denaturation at 95° C. for 20 s, annealing (20 s) and extension (35 s) at 72° C. Specific primer pairs, designed using the Primer3 software, are shown.
smc02641 and smc00128 were used as housekeeping genes for data normalization in the comparative Ct method as previously described (8). Phosphatase Activity

acid phosphatase = experiment: Acid phosphatase activity under P-starved conditions; format: cell-based, S. meliloti; details: phosphate starvation; vs 1021 cells; compounds 0.5 mM, 3 hours at 30° C.
alkaline phosphatase = details: phosphate starvation; vs 1021 cells; compounds 0.5 mM, 3 hours at 30° C.
Procedure: Acid (A) and alkaline (B) phosphatase activity in S. meliloti cells under P-starved conditions. Log-phase cells grown in a MOPS-buffered minimal medium (starting P concentration=13 mM) were washed and then resuspended in the same medium containing no added P (1021 and RD64 strains) and 0.5 mM IAA, Trp or Ind (1021 strain). Treatments were performed for 3 hours at 30° C.
Alkaline and acid phophatase enzymes under P-limiting conditions were assayed as previously reported (16). Units are reported as nanomoles per minute per milligram of protein. Protein concentrations were determined by the Bradford's assay.

[2] = 1021 + 0.5 mM ICA vs untreated 1021
[3] = 1021 + 0.5 mM Indole vs untreated 1021
[4] = 1021 + 0.5 mM Tryptophan vs untreated 1021

O=C(O)c1c[nH]c2ccccc12 [ICA, indole-3-carboxylic acid]
M (log2 ratio of intensities) SMa1077 nex18 (S. meliloti 1021; [2]): 0.9938
M (log2 ratio of intensities) SMa1118 hspC2 (S. meliloti 1021; [2]): 1.111
M (log2 ratio of intensities) SMa1128 degP4 (S. meliloti 1021; [2]): 1.148
M (log2 ratio of intensities) SMa1306 virB9 (S. meliloti 1021; [2]): 0.9404
M (log2 ratio of intensities) SMb21183 htpG (S. meliloti 1021; [2]): 0.7619
M (log2 ratio of intensities) SMc00323 rpsO (S. meliloti 1021; [2]): −0.722
M (log2 ratio of intensities) SMc00335 rpsA (S. meliloti 1021; [2]): −0.7763
M (log2 ratio of intensities) SMc00514 smc00514 (S. meliloti 1021; [2]): 0.8721
M (log2 ratio of intensities) SMc00537 smc00537 (S. meliloti 1021; [2]): 0.9583
M (log2 ratio of intensities) SMc00868 atpF (S. meliloti 1021; [2]): −0.8306
M (log2 ratio of intensities) SMc00912 groES1 (S. meliloti 1021; [2]): −1.491
M (log2 ratio of intensities) SMc00913 groEL1 (S. meliloti 1021; [2]): −0.8349
M (log2 ratio of intensities) SMc01169 ald (S. meliloti 1021; [2]): 1.71
M (log2 ratio of intensities) SMc01309 rplC (S. meliloti 1021; [2]): −0.7558
M (log2 ratio of intensities) SMc01326 tufB (S. meliloti 1021; [2]): −0.8768
M (log2 ratio of intensities) SMc01534 smc01534 (S. meliloti 1021; [2]): 0.9277
M (log2 ratio of intensities) SMc01793 smc01793 (S. meliloti 1021; [2]): −0.7625
M (log2 ratio of intensities) SMc02498 atpH (S. meliloti 1021; [2]): −0.7281
M (log2 ratio of intensities) SMc02603 smc02603 (S. meliloti 1021; [2]): 1.484
M (log2 ratio of intensities) SMc03030 flgG (S. meliloti 1021; [2]): −0.7501
M (log2 ratio of intensities) SMc03037 flaA (S. meliloti 1021; [2]): −0.7114
M (log2 ratio of intensities) SMc03168 smc03168 (S. meliloti 1021; [2]): 1.005
M (log2 ratio of intensities) SMc03253 smc03253 (S. meliloti 1021; [2]): 1.14
M (log2 ratio of intensities) SMc03829 smc03829 (S. meliloti 1021; [2]): 0.9065
M (log2 ratio of intensities) SMc04040 ibpA (S. meliloti 1021; [2]): 1.474
M (log2 ratio of intensities) SMc04114 pilA1 (S. meliloti 1021; [2]): −0.7274
M (log2 ratio of intensities) SMc04140 smc04140 (S. meliloti 1021; [2]): 1.126
M (log2 ratio of intensities) SMc04307 cyaD2 (S. meliloti 1021; [2]): 1.012
pho genes among those significantly affected (microarray) (S. meliloti 1021): did not find any pho genes
phoB regulatory gene expression (qRT-PCR) [1]: unaffected

c1ccc2[nH]ccc2c1 [Indole, indole]
M (log2 ratio of intensities) SMa1077 nex18 (S. meliloti 1021; [3]): 0.7413
M (log2 ratio of intensities) SMa1087 sma1087 (S. meliloti 1021; [3]): 0.7199
M (log2 ratio of intensities) SMa1128 degP4 (S. meliloti 1021; [3]): 1.152
M (log2 ratio of intensities) SMa1329 sma1329 (S. meliloti 1021; [3]): 1.658
M (log2 ratio of intensities) SMb21177 phoC (S. meliloti 1021; [3]): 1.282
M (log2 ratio of intensities) SMb21183 htpG (S. meliloti 1021; [3]): 0.9544
M (log2 ratio of intensities) SMc00182 smc00182 (S. meliloti 1021; [3]): −0.9429
M (log2 ratio of intensities) SMc00335 rpsA (S. meliloti 1021; [3]): −0.7083
M (log2 ratio of intensities) SMc00364 rplT (S. meliloti 1021; [3]): −1.373
M (log2 ratio of intensities) SMc00383 gst3 (S. meliloti 1021; [3]): −0.7478
M (log2 ratio of intensities) SMc01106 smc01106 (S. meliloti 1021; [3]): 1.513
M (log2 ratio of intensities) SMc01291 rpmD (S. meliloti 1021; [3]): −1.485
M (log2 ratio of intensities) SMc01308 rplD (S. meliloti 1021; [3]): −1.252
M (log2 ratio of intensities) SMc01311 tufA (S. meliloti 1021; [3]): −0.711
M (log2 ratio of intensities) SMc01312 fusA1 (S. meliloti 1021; [3]): 0.9128
M (log2 ratio of intensities) SMc01318 rplL (S. meliloti 1021; [3]): −0.7037
M (log2 ratio of intensities) SMc01946 livK (S. meliloti 1021; [3]): −1.077
M (log2 ratio of intensities) SMc02501 atpD (S. meliloti 1021; [3]): −1.405
M (log2 ratio of intensities) SMc02857 dnaK (S. meliloti 1021; [3]): 0.7321
M (log2 ratio of intensities) SMc03159 smc03159 (S. meliloti 1021; [3]): −0.938
M (log2 ratio of intensities) SMc03167 smc03167 (S. meliloti 1021; [3]): 0.7656
M (log2 ratio of intensities) SMc03253 smc03253 (S. meliloti 1021; [3]): 1.951
M (log2 ratio of intensities) SMc03829 smc03829 (S. meliloti 1021; [3]): 0.8604
M (log2 ratio of intensities) SMc04040 ibpA (S. meliloti 1021; [3]): 2.449
M (log2 ratio of intensities) SMc04087 smc04087 (S. meliloti 1021; [3]): 1.944
M (log2 ratio of intensities) SMc04114 pilA1 (S. meliloti 1021; [3]): −1.888
M (log2 ratio of intensities) SMc04140 smc04140 (S. meliloti 1021; [3]): 1.411
M (log2 ratio of intensities) SMc04141 gst9 (S. meliloti 1021; [3]): 1.708
acid phosphatase activity (acid phosphatase): unaffected, or only slightly increased
alkaline phosphatase activity (alkaline phosphatase): unaffected, or only slightly increased
expression level of all five pho genes (RT-PCR) [1]: only slightly induced or unchanged

N[C@@H](Cc1c[nH]c2ccccc12)C(=O)O [Tryptophan, tryptophan]
M (log2 ratio of intensities) SMa0707 sma0707 (S. meliloti 1021; [4]): 0.9084
M (log2 ratio of intensities) SMa0711 sma0711 (S. meliloti 1021; [4]): 0.8863
M (log2 ratio of intensities) SMa1007 sma1007 (S. meliloti 1021; [4]): 0.9801
M (log2 ratio of intensities) SMa1073 sma1073 (S. meliloti 1021; [4]): 0.7423
M (log2 ratio of intensities) SMa1087 sma1087 (S. meliloti 1021; [4]): 0.751
M (log2 ratio of intensities) SMa1118 hspC2 (S. meliloti 1021; [4]): 0.8663
M (log2 ratio of intensities) SMa1128 degP4 (S. meliloti 1021; [4]): 1.449
M (log2 ratio of intensities) SMa1321 virB1 (S. meliloti 1021; [4]): 4.445
M (log2 ratio of intensities) SMa2145 sma2145 (S. meliloti 1021; [4]): 0.9145
M (log2 ratio of intensities) SMa2189 sma2189 (S. meliloti 1021; [4]): 0.993
M (log2 ratio of intensities) SMb20585 ggt (S. meliloti 1021; [4]): 1.09
M (log2 ratio of intensities) SMb20672 smb20672 (S. meliloti 1021; [4]): 1.815
M (log2 ratio of intensities) SMb20984 nirB 4 (S. meliloti 1021; [4]): −1.11
M (log2 ratio of intensities) SMb21566 groEL5 (S. meliloti 1021; [4]): −1.021
M (log2 ratio of intensities) SMc00155 aroF (S. meliloti 1021; [4]): −1.565
M (log2 ratio of intensities) SMc00182 smc00182 (S. meliloti 1021; [4]): −1.097
M (log2 ratio of intensities) SMc01169 ald (S. meliloti 1021; [4]): 0.7379
M (log2 ratio of intensities) SMc01293 rplR 3 (S. meliloti 1021; [4]): −0.7637
M (log2 ratio of intensities) SMc01311 tufA (S. meliloti 1021; [4]): −0.7229
M (log2 ratio of intensities) SMc01313 rpsG (S. meliloti 1021; [4]): −0.7518
M (log2 ratio of intensities) SMc01314 rpsL (S. meliloti 1021; [4]): −0.7349
M (log2 ratio of intensities) SMc01636 smc01636 (S. meliloti 1021; [4]): −0.9473
M (log2 ratio of intensities) SMc02507 sitC (S. meliloti 1021; [4]): 1.133
M (log2 ratio of intensities) SMc03253 smc03253 (S. meliloti 1021; [4]): 2.689
M (log2 ratio of intensities) SMc04140 smc04140 (S. meliloti 1021; [4]): 2.032
M (log2 ratio of intensities) SMc04141 gst9 (S. meliloti 1021; [4]): 1.581
M (log2 ratio of intensities) SMc04147 smc04147 (S. meliloti 1021; [4]): 0.8262
M (log2 ratio of intensities) SMc04434 rpmH (S. meliloti 1021; [4]): −0.7758
pho genes among those significantly affected (microarray) (S. meliloti 1021): did not find any pho genes
acid phosphatase activity (acid phosphatase): unaffected, or only slightly increased
alkaline phosphatase activity (alkaline phosphatase): unaffected, or only slightly increased
expression of pho genes in RD64 cells after addition of compound ([1]; 0.5 mM added to RD64 cells, vs untreated RD64 cells, data not shown): unaffected or slightly reduced
expression level of all five pho genes (RT-PCR) [1]: only slightly induced or unchanged
phoB regulatory gene expression (qRT-PCR) [1]: unaffected
